Experiments:
[1] = Binding affinity to A1R Y271 7.36A mutant (unknown origin) by saturation NanoBRET binding assay; design: species or system Homo sapiens
[2] = biological target: T1, Adenosine receptor A1 (Homo sapiens, UniProt P30542); assay: Binding affinity to human adenosine A1R expressed in CHO cells membrane; type: cell membranes
T1 sequence (P30542 whole entry): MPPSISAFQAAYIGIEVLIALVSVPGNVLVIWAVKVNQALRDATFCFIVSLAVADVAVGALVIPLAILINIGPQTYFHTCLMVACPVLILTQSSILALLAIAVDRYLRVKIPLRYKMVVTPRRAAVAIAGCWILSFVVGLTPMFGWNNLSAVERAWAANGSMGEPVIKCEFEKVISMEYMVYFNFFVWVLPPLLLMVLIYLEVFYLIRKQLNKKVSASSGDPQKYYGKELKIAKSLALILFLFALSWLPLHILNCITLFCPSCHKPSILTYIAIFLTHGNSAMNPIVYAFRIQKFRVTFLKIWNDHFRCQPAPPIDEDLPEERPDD

[3] = biological target: T2, Adenosine receptor A3 (Homo sapiens, UniProt P0DMS8); assay: Antagonist activity at wild type A3R (unknown origin) expressed in Flp-In-CHO cells assessed as inhibition of NECA reduced forskolin stimulated cAMP accumulation incubated for 30 mins; type: functional, cell-based
T2 sequence (P0DMS8 whole entry): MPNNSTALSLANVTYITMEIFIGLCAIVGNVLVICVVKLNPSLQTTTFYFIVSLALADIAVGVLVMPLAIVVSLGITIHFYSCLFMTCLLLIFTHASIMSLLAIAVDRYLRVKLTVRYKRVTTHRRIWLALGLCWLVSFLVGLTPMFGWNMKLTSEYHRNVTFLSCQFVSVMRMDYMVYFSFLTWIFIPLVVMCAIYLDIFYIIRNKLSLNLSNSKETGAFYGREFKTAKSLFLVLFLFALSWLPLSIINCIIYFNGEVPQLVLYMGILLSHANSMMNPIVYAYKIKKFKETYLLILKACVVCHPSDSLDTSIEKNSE

[4] = biological target: T2, Adenosine receptor A3; assay: Binding affinity to wild type A3R (unknown origin) expressed in Flp-In-CHO cells assessed as dissociation constant by Schild analysis; type: cell-based
[5] = biological target: T2, Adenosine receptor A3; assay: Binding affinity to wild type A3R (unknown origin) expressed in CHO-K1 cells assessed as equilibrium binding affinity constant by nanoBRET assay; type: cell-based, Flp-In-CHO
[6] = biological target: T2, Adenosine receptor A3; assay: Binding affinity to Nluc-A3R (unknown origin) expressed in HEK293 cells by nanoBRET assay; type: cell-based
[7] = biological target: T1, Adenosine receptor A1; assay: Antagonist activity at wild type A1R (unknown origin) expressed in CHO-K1 cells assessed as inhibition of NECA reduced forskolin stimulated cAMP accumulation incubated for 30 mins; type: functional, cell-based
[8] = biological target: T1, Adenosine receptor A1; assay: Binding affinity to wild type A1R (unknown origin) expressed in CHO-K1 cells assessed as equilibrium binding affinity constant by nanoBRET assay; type: cell-based
[9] = biological target: T1, Adenosine receptor A1; assay: Binding affinity to Nluc-A1R (unknown origin) expressed in HEK293 cells by nanoBRET assay; type: cell-based
[10] = biological target: T3, Adenosine receptor A3 (Homo sapiens) (UniProt P0DMS8); assay: Binding affinity to human adenosine A3R expressed in CHO cells membrane assessed as binding constant (kon); type: cell membranes; settings: filed as antagonist
T3 sequence (whole entry): T2 sequence (P0DMS8 whole entry)

[11] = biological target: T3, Adenosine receptor A3 (Homo sapiens); assay: Binding affinity to human adenosine A3R expressed in CHO cells membrane assessed as dissociation constant (koff); type: cell membranes; settings: filed as antagonist
[12] = biological target: T3, Adenosine receptor A3 (Homo sapiens); assay: Binding affinity to human adenosine A3R expressed in CHO cells membrane assessed as residence time; type: cell membranes; settings: filed as antagonist
[13] = biological target: T2, Adenosine receptor A3; assay: Binding affinity to human adenosine A3R expressed in CHO cells membrane; type: cell membranes
[14] = biological target: T4, Adenosine receptor A1 (Homo sapiens) (UniProt P30542); assay: Displacement of [3H]-DPCPX from human adenosine A1R expressed in CHO cells membrane assessed as association constant (kon) incubated for 45 mins; type: cell membranes; settings: filed as antagonist
T4 sequence (whole entry): T1 sequence (P30542 whole entry)

[15] = biological target: T4, Adenosine receptor A1 (Homo sapiens); assay: Displacement of [3H]-DPCPX from human adenosine A1R expressed in CHO cells membrane assessed as dissociation constant (koff) preincubated for 1 hr followed by compound addition and measured after 1 hr; type: cell membranes; settings: filed as antagonist
[16] = biological target: T1, Adenosine receptor A1; assay: Displacement of [3H]-DPCPX from human adenosine A1R expressed in CHO cells membrane incubated for 1 hr; type: cell membranes
[17] = biological target: T4, Adenosine receptor A1 (Homo sapiens); assay: Displacement of [3H]-DPCPX from human adenosine A1R expressed in CHO cells membrane assessed as residence time; type: cell membranes; settings: filed as antagonist
[18] = biological target: Adenosine receptor A1 (Homo sapiens, UniProt P30542, E172A); assay: Binding affinity to A1R E172 5.30A mutant (unknown origin) by saturation NanoBRET binding assay
Chain of Adenosine receptor A1 (Homo sapiens, UniProt P30542, E172A) (P30542 whole entry E172A): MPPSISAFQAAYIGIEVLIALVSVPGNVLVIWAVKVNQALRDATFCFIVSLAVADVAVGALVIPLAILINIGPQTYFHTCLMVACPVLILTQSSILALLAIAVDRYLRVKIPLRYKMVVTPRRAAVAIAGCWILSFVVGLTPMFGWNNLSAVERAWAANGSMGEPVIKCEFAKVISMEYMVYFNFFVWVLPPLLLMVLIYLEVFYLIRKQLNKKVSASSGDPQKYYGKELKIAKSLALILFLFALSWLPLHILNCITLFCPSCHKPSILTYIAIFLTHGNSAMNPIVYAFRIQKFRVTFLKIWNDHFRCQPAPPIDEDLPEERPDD

[19] = biological target: Adenosine receptor A1 (Homo sapiens, UniProt P30542, H251A); assay: Binding affinity to A1R H251 6.52A mutant (unknown origin) by saturation NanoBRET binding assay
Chain of Adenosine receptor A1 (Homo sapiens, UniProt P30542, H251A) (P30542 whole entry H251A): as the sequence (P30542 whole entry E172A) above, with A172E, H251A counted along it

[20] = biological target: Adenosine receptor A1 (Homo sapiens, UniProt P30542, S267A); assay: Binding affinity to A1R S267 7.32A mutant (unknown origin) in by saturation NanoBRET binding assay
Chain of Adenosine receptor A1 (Homo sapiens, UniProt P30542, S267A) (P30542 whole entry S267A): as the sequence (P30542 whole entry E172A) above, with A172E, S267A counted along it

[21] = biological target: Adenosine receptor A1 (Homo sapiens, UniProt P30542, L250A)
Chain of Adenosine receptor A1 (Homo sapiens, UniProt P30542, L250A) (P30542 whole entry L250A): as the sequence (P30542 whole entry E172A) above, with A172E, L250A counted along it
Description: Binding affinity to A1R L250 6.51A mutant (unknown origin) by saturation NanoBRET binding assay

[22] = biological target: T3, Adenosine receptor A3 (Homo sapiens); assay: Binding affinity to N-terminal Nano-luc tagged human adenosine A3R expressed in HEK293 cells membrane assessed as association constant (kon); type: cell membranes; settings: filed as antagonist
[23] = biological target: T3, Adenosine receptor A3 (Homo sapiens); assay: Binding affinity to N-terminal Nano-luc tagged human adenosine A3R expressed in HEK293 cells membrane assessed as dissociation constant (koff); type: cell membranes; settings: filed as antagonist
[24] = biological target: T3, Adenosine receptor A3 (Homo sapiens); assay: Binding affinity to N-terminal Nano-luc tagged human adenosine A3R expressed in HEK293 cells membrane assessed as residence time; type: cell membranes; settings: filed as antagonist
[25] = biological target: T2, Adenosine receptor A3; assay: Binding affinity to N-terminal Nano-luc tagged human adenosine A3R expressed in HEK293 cells membrane; type: cell membranes
[26] = biological target: T1, Adenosine receptor A1; assay: Binding affinity to wild type A1R (unknown origin) by saturation NanoBRET binding assay

| SMILES | IC50 [3] | Kd [4] | Ki [5] | Kd [6] | IC50 [7] | Ki [8] | Kd [9] | also measured |
| --- | --- | --- | --- | --- | --- | --- | --- | --- |
| CCNC(=O)[C@H]1O[C@@H](n2cnc3c(N)ncnc32)[C@H](O)[C@@H]1O [NECA] |  |  |  |  |  |  |  | pKd [1]: 5.45 |
| CCCn1c(=O)[nH]c(=O)c2[nH]c(C3CCCC3)nc21 |  |  |  |  |  |  |  | Kd [2]: 1.5 nM |
| COc1cc(Nc2nccc3c(-c4ccccc4)n[nH]c23)cc(OC)c1OC | 5.13 nM | 251 nM | 100 nM | 74.1 nM |  |  |  |  |
| N#Cc1cc2c(-c3ccccc3)n[nH]c2c(Nc2ccccc2)n1 | 60.3 nM | 17 nM | 43.7 nM | 26.3 nM | 13.5 nM | 214 nM | 61.7 nM |  |
| COc1cc(Nc2nc(CNCc3ccccc3)cc3c(-c4ccccc4)n[nH]c23)cc(OC)c1OC | 7.24 nM | 158 nM | 85.1 nM | 186 nM | 3.89 nM | 204 nM | 427 nM |  |
| COc1cc(Nc2nc(Cl)cc3c(C(C)C)n[nH]c23)cc(OC)c1OC | 2.82 nM | 550 nM | 631 nM |  | 5.01 nM | 288 nM | 282 nM |  |
| CC[C@@H]1CN2C(=O)N(C)C3N=C(c4ccccc4)NC3C2=N1 (some centres undefined) |  |  |  |  |  |  |  | K [10]: 2.35 10^8/M/min; K [11]: 0.208 min⁻¹; TIME [12]: 0.08 h; Kd [13]: 0.46 nM |
| O=C(CNc1ccccc1)Nc1n[nH]c2cnc(Nc3ccccc3)cc12 | 3.02 nM | 490 nM | 0.115 nM | 355 nM | 6.92 nM | 363 nM | 282 nM |  |
| Cn1nc(NC(=O)c2ccccc2)c2cc(Nc3ccccc3)ncc21 | 6.76 nM | 170 nM | 234 nM |  | 5.01 nM | > 955 nM | 851 nM |  |
| N#Cc1c(N)nc(SCc2ncc[nH]2)c(C#N)c1-c1ccc(O)cc1 |  |  |  |  |  |  |  | K [14]: 2 10^8/M/min; K [15]: 0.92 min⁻¹; Kd [16]: 4.6 nM; TIME [17]: 0.0183 h |
| COc1cc(Nc2nc(CN)cc3c(-c4ccccc4)n[nH]c23)cc(OC)c1OC | 4.9 nM | 257 nM | 132 nM | 257 nM | 22.9 nM | 22.9 nM | 40.7 nM |  |
| Cn1nc(NC(=O)CNc2ccccc2)c2cc(Nc3ccccc3)ncc21 |  |  |  |  | 2.63 nM | 295 nM | 398 nM |  |
| CCCn1c(=O)c2[nH]c(-c3ccc(OCC(=O)NCCNC(=O)CCNC(=O)CCCCNC(=O)CCCCCNC(=O)COc4ccc(/C=C/C5=[N+]6C(=Cc7ccc(-c8cccs8)n7[B-]6(F)F)C=C5)cc4)cc3)nc2n(CCC)c1=O |  |  |  |  |  |  |  | Kd ([18]; read-out: Kd): 116 nM; Kd ([19]; read-out: Kd): 145 nM; Kd ([20]; read-out: Kd): 71 nM; Kd [1]: 71.1 nM; Kd [21]: 158 nM |
| COc1cc(Nc2nc(C#N)cc3cn[nH]c23)cc(OC)c1OC |  |  |  |  | 10.2 nM | 229 nM | 102 nM |  |
| COc1cccc(Cn2c(=O)n(CC3CC3)c(=O)c3c2nc2cc(OC)ccn23)c1 |  |  |  |  |  |  |  | K [22]: 8.17 10^6/M/min; K [23]: 0.0065 min⁻¹; TIME [24]: 2.8 h; Kd [25]: 9.11 nM |
| COc1cc(Nc2nc(C#N)cc3c(C(C)C)n[nH]c23)cc(OC)c1OC | 3.8 nM | 355 nM | 603 nM |  |  |  |  |  |
| Cn1nc(NC(=O)Nc2ccccc2)c2ccnc(NC3CCCCC3)c21 | 4.27 nM | 302 nM | 64.6 nM |  | 1.41 nM | 1000 nM |  |  |
| COc1cc(Nc2nc(Cl)cc3c(-c4ccccc4)n[nH]c23)cc(OC)c1OC | 12.3 nM | 89.1 nM | 55 nM | 85.1 nM |  |  |  |  |
| COc1cc(Nc2nc(C#N)cc3c(-c4ccccc4)n[nH]c23)cc(OC)c1OC |  |  |  |  | 200 nM | 4.37 nM | 1.74 nM | Kd [26]: 13.5 nM; Kd ([18]; read-out: pKd (converted)): 23.4 nM; Kd ([19]; read-out: pKd (converted)): 9.33 nM; Kd ([20]; read-out: pKd (converted)): 7.94 nM; Kd [21]: 3.63 nM |
